According to PubChem BioAssay (NCI):
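Cultured in 96-well plates, cells were exposed to test compound for 48 hours across five concentrations. Abbreviation: GI50, concentration required for 50% inhibition of growth. TGI is the concentration that stops growth completely.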 Where a SMILES comes first, the peptide text is derived from it. [ ]: non-standard residue; d: D form. The star is where a group is joined. ξ: configuration not given here. 4Abz = Nc1ccc(C(=O)O)cc1; ξL = CC(C)CC(N)C(=O)O; NHOH = ON*

Key:
Assay in all cases: NCI-60 cell line screen, 48 h
[1] = system: HCT-15 colon
[2] = system: OVCAR-4 ovarian
[3] = system: T-47D breast
[4] = system: NCI-H226 lung
[5] = system: NCI/ADR-RES ovarian
[6] = system: SK-MEL-2 melanoma
[7] = system: BT-549 breast
[8] = system: SW-620 colon
[9] = system: MDA-MB-231 breast
[10] = system: CAKI-1 renal
[11] = system: KM12 colon
[12] = system: K-562 leukemia
[13] = system: LOX IMVI melanoma
[14] = system: EKVX NSCLC
[15] = system: OVCAR-8 ovarian
[16] = system: HS 578T breast
[17] = system: HCT-116 colon
[18] = system: NCI-H460 lung
[19] = system: NCI-H23 lung
[20] = system: HOP-62 NSCLC
[21] = system: RXF 393 renal
[22] = system: SF-295 CNS
[23] = system: MALME-3M melanoma
[24] = system: OVCAR-5 ovarian
[25] = system: PC-3 prostate
[26] = system: HT29 colon
[27] = system: SNB-19 CNS
[28] = system: DU-145 prostate
[29] = system: MOLT-4 leukemia
[30] = system: IGROV1 ovarian
[31] = system: MDA-MB-435
[32] = system: 786-0 renal
[33] = system: SF-268 CNS
[34] = system: OVCAR-3 ovarian
[35] = system: TK-10 renal
[36] = system: HCC-2998 colon
[37] = system: ACHN renal
[38] = system: UACC-257 melanoma
[39] = system: MCF7 breast
[40] = system: COLO 205 colon
[41] = system: SK-OV-3 ovarian
[42] = system: A549 NSCLC
[43] = system: SK-MEL-5 melanoma
[44] = system: U251 CNS
[45] = system: SNB-75 CNS
[46] = system: SK-MEL-28 melanoma
[47] = system: SF-539 CNS
[48] = system: M14 melanoma
[49] = system: NCI-H522 lung
[50] = system: UO-31 renal
[51] = system: UACC-62 melanoma

## CC(C)CC(NC(=O)[C@@H]1CCCN1C(=O)CNC(=O)c1ccc(N)cc1)C(=O)N[C@H](C)C(=O)NO (some centres not stated) (H-[4Abz]GP[ξL][dA]-{NHOH})
[1]
  GI50: > 100 µM
  TGI: > 100 µM
[2]
  GI50: > 100 µM
  TGI: > 100 µM
[3]
  GI50: > 100 µM
  TGI: > 100 µM
[4]
  GI50: > 100 µM
  TGI: > 100 µM
[5]
  GI50: > 100 µM
  TGI: > 100 µM
[6]
  GI50: > 100 µM
  TGI: > 100 µM
[7]
  GI50: > 100 µM
  TGI: > 100 µM
[8]
  GI50: > 100 µM
  TGI: > 100 µM
[9]
  GI50: > 100 µM
  TGI: > 100 µM
[10]
  GI50: > 100 µM
  TGI: > 100 µM
[11]
  GI50: > 100 µM
  TGI: > 100 µM
[12]
  GI50: > 100 µM
  TGI: > 100 µM
[13]
  GI50: > 100 µM
  TGI: > 100 µM
[14]
  GI50: > 100 µM
  TGI: > 100 µM
[15]
  GI50: > 100 µM
  TGI: > 100 µM
[16]
  GI50: > 100 µM
  TGI: > 100 µM
[17]
  GI50: > 100 µM
  TGI: > 100 µM
[18]
  GI50: > 100 µM
  TGI: > 100 µM
[19]
  GI50: > 100 µM
  TGI: > 100 µM
[20]
  GI50: > 100 µM
  TGI: > 100 µM
[21]
  GI50: > 100 µM
  TGI: > 100 µM
[22]
  GI50: > 100 µM
  TGI: > 100 µM
[23]
  GI50: > 100 µM
  TGI: > 100 µM
[24]
  GI50: > 100 µM
  TGI: > 100 µM
[25]
  GI50: > 100 µM
  TGI: > 100 µM
[26]
  GI50: > 100 µM
  TGI: > 100 µM
[27]
  GI50: > 100 µM
  TGI: > 100 µM
[28]
  GI50: > 100 µM
  TGI: > 100 µM
[29]
  GI50: > 100 µM
  TGI: > 100 µM
[30]
  GI50: > 100 µM
  TGI: > 100 µM
[31]
  GI50: > 100 µM
  TGI: > 100 µM
[32]
  GI50: > 100 µM
  TGI: > 100 µM
[33]
  GI50: > 100 µM
  TGI: > 100 µM
[34]
  GI50: > 100 µM
  TGI: > 100 µM
[35]
  GI50: > 100 µM
  TGI: > 100 µM
[36]
  GI50: > 100 µM
  TGI: > 100 µM
[37]
  GI50: > 100 µM
  TGI: > 100 µM
[38]
  GI50: > 100 µM
  TGI: > 100 µM
[39]
  GI50: > 100 µM
  TGI: > 100 µM
[40]
  GI50: > 100 µM
  TGI: > 100 µM
[41]
  GI50: > 100 µM
  TGI: > 100 µM
[42]
  GI50: > 100 µM
  TGI: > 100 µM
[43]
  GI50: > 100 µM
  TGI: > 100 µM
[44]
  GI50: > 100 µM
  TGI: > 100 µM
[45]
  GI50: > 100 µM
  TGI: > 100 µM
[46]
  GI50: > 100 µM
  TGI: > 100 µM
[47]
  GI50: > 100 µM
  TGI: > 100 µM
[48]
  GI50: > 100 µM
  TGI: > 100 µM
[49]
  GI50: > 100 µM
  TGI: > 100 µM
[50]
  GI50: > 100 µM
  TGI: > 100 µM
[51]
  GI50: > 100 µM
  TGI: > 100 µM
